Test results taken from publication PMC4616163, “Inverse relationship between chitobiase and transglycosylation activities of chitinase-D from Serratia proteamaculans revealed by mutational and biophysical analyses” (Scientific Reports, 2015).
Several values for one entry are separate records, joined by “and”; a condition that tells them apart may be missing. Equal values may be shown once. Read-outs that look alike come from different tables or passages of the source.

What was measured:
BcChiA-E61A = test: Literature Kd values from isothermal titration calorimetry, quoted for comparison; conditions not given in this article.; format: binding; conditions: read-out: Kd values in μM (SmChiB-E144Q, OfChtI-E148Q, BcChiA-E61A); cited from earlier work
Text: (§1) So far three chitinases, two belonging to family GH18 (ChiB from S. marcescens−SmChiB and a chitinase from the insect Ostrinia furnacalis−OfChtI) and one belonging to family GH19 (ChiA from moss species, Bryum coronatum−BcChiA) were studied in great detail for their binding properties using ITC[27][28][29]. […] The high binding affinities of the mutant E153A even for the lower chain CHOS like DP2 and DP3, indicates the probability of these CHOS getting transglycosylated at the substrate-binding cleft. […] Therefore, the exceptionally high binding affinities of the mutant E153A for CHOS with DP2−6 compared to any other GH18 or GH19 chitinases[27][28][29] (Table 3) might be crucial to facilitate the unprecedented hyper-TG activity by SpChiD.

SmChiB-E144Q = test: as above; format: binding; conditions: read-out: Kd values in μM (SmChiB-E144Q, OfChtI-E148Q, BcChiA-E61A); cited from earlier work
Text: as §1

SpChiD mutant E153A = test: DSC ligand-induced thermal stability of E153A with CHOS DP2–6; format: binding, Serratia proteamaculans; conditions: for Tm Transition-I / Tm Transition-II: DSC, pH 8.0; for Tm Transition-I: E153A 0.5 mg/mL alone or pre-incubated 1 h with 1 mM ligand; for Tm Transition-II: E153A alone or pre-incubated 1 h with 1 mM ligand; for increment of Tm1 over E153A alone / increment of Tm2 over E153A alone: [Tm of E153A + (DP)n] − Tm of E153A alone; for increment of Tm1 over E153A alone: first transition; for increment of Tm2 over E153A alone: second transition
Protocol: DSC measurements were carried out on a MicroCal VP-DSC (MicroCal LLC, Northampton, MA, USA). SpChiD and mutant E153A were dialyzed against 20 mM potassium phosphate buffer, pH 8.0. The dialysate was used as the reference. Protein samples (0.5 mg/mL) were heated from 10–70 °C at a scan rate of 30°/h to assess the effect of ligand binding on thermal unfolding. Mutant E153A was pre-incubated for 1 h with 1 mM of each ligand (DP2–6) before scanning. Sample and reference solutions were degassed prior to scanning to eliminate bubbling effects. Baseline reproducibility was verified by multiple scans, and the reversibility of protein unfolding was monitored by scanning the sample twice. Buffer scans were subtracted from thermograms obtained in the presence or absence of CHOS before further analysis. Absolute and excess heat capacities were analyzed using a non-two-state fit of the thermogram in Origin v7.0.

SpChiD-E153A [1] = biological target: SpChiD-E153A (Serratia proteamaculans, UniProt A8GFD6, E159A); test: ITC binding of CHOS to E153A; conditions: ITC
Protocol: (§2) Calorimetric titrations were carried out at 13 °C with DP2–4 CHOS, and at 25 °C with DP5 and DP6 CHOS, using a MicroCal ITC200 System (Microcal, Northampton, MA, USA). Mutant E153A was extensively dialyzed against 20 mM potassium phosphate (pH 8.0) and the dialysate was used to make CHOS solutions to minimize the heat of dilution during titration. Protein solutions were passed through 0.2-μm filters and thoroughly degassed prior to use. […] Successive injections at 225-s intervals ensured that equilibrium was achieved before adding the next aliquot. The sample in the calorimeter cell was stirred at 260 rpm during titration. Blank titrations were also performed by injecting ligand alone into the buffer solution, which yielded insignificant heat of dilution values. The binding isotherms were analyzed using MicroCal Origin v7.0. Thermodynamic parameters such as binding stoichiometry (n), change in enthalpy (ΔH) and association constant (Ka) were obtained by nonlinear least-squares fitting of experimental data using the one-set-of-sites binding model. Free energy of binding (ΔG) and change in entropy (ΔS) were deduced from the Ka and ΔH values using the standard thermodynamic equation

SpChiD-E153A [2] = test: ITC binding of CHOS to E153A; parameters: species or system Serratia proteamaculans; conditions: for binding affinity to E153A relative to the same ligand on SmChiB: times higher than SmChiB
Protocol: as §2

OfChtI-E148Q = conditions: catalytically-inactive mutant, cited from earlier work

Chain of SpChiD-E153A (Serratia proteamaculans, UniProt A8GFD6, E159A) (A8GFD6 entry or part of it E159A): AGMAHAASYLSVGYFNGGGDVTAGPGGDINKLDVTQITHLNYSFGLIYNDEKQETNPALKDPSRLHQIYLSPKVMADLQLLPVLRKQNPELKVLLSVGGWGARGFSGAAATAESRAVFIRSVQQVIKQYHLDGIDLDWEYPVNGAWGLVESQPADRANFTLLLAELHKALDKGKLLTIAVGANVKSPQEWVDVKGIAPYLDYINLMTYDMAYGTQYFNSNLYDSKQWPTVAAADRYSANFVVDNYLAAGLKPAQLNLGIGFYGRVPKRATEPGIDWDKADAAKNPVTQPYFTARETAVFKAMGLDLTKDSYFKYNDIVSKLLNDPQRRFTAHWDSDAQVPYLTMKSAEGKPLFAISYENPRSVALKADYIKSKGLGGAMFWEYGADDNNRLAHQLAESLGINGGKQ

Row | Structure (SMILES) | Kd (BcChiA-E61A) [µM] | Kd (SmChiB-E144Q) [µM] | Tm Transition-I (SpChiD mutant E153A) [°C] | Tm Transition-II (SpChiD mutant E153A) [°C] | n (binding stoichiometry) (SpChiD-E153A [1]; 13 °C) | ΔH° (SpChiD-E153A [1]; 13 °C) [kcal/mol] | ΔS° (SpChiD-E153A [1]; 13 °C) [cal.mol^−1.deg^−1] | −TΔS (SpChiD-E153A [1]; 13 °C) [kcal/mol] | −ΔG° (SpChiD-E153A [1]; 13 °C) [kcal/mol] | binding affinity to E153A relative to the same ligand on SmChiB (SpChiD-E153A [2]) | Kd (OfChtI-E148Q; read-out: Kd to OfChtI-E148Q) [nM] | other results
1 | CC(=O)N[C@H]1[C@H](O[C@H]2[C@H](O)[C@@H](NC(C)=O)[C@H](O[C@H]3[C@H](O)[C@@H](NC(C)=O)C(O)O[C@@H]3CO)O[C@@H]2CO)O[C@H](CO)[C@@H](O[C@@H]2O[C@H](CO)[C@@H](O[C@@H]3O[C@H](CO)[C@@H](O[C@@H]4O[C@H](CO)[C@@H](O)[C@H](O)[C@H]4NC(C)=O)[C@H](O)[C@H]3NC(C)=O)[C@H](O)[C@H]2NC(C)=O)[C@@H]1O (some centres unmarked) [DP6, (GlcNAc)6, hexa-N-acetylchitohexaose (chitohexaose)] | 0.77 ± 0.06 | 0.13 ± 0.09 |  |  |  |  |  |  |  |  |  | 
2 | CC(=O)N[C@H]1[C@H](O[C@H]2[C@H](O)[C@@H](NC(C)=O)C(O)O[C@@H]2CO)O[C@H](CO)[C@@H](O[C@@H]2O[C@H](CO)[C@@H](O)[C@H](O)[C@H]2NC(C)=O)[C@@H]1O (some centres unmarked) [DP3] |  |  | 50.20 ± 0.47 | 54.30 ± 0.043 | 0.84 and 0.839 ± 0.0641 | -1.837 ± 0.186 | 14.9 | 4.26 | 6.1 | 1,515 fold |  | Kd (OfChtI-E148Q; read-out: Kd1 to OfChtI-E148Q): 76900 nM; Kd (OfChtI-E148Q; read-out: Kd2 to OfChtI-E148Q): 284000 nM
3 | CC(=O)N[C@H]1[C@H](O[C@H]2[C@H](O)[C@@H](NC(C)=O)[C@H](O[C@H]3[C@H](O)[C@@H](NC(C)=O)C(O)O[C@@H]3CO)O[C@@H]2CO)O[C@H](CO)[C@@H](O[C@@H]2O[C@H](CO)[C@@H](O[C@@H]3O[C@H](CO)[C@@H](O)[C@H](O)[C@H]3NC(C)=O)[C@H](O)[C@H]2NC(C)=O)[C@@H]1O (some centres unmarked) [DP5] |  |  | 56.09 ± 0.30 | 59.30 ± 0.063 |  |  |  |  |  | 52 fold | 2000 ± 200 | increment of Tm1 over E153A alone (SpChiD mutant E153A): 10.7 °C; increment of Tm2 over E153A alone (SpChiD mutant E153A): 11.2 °C; n (binding stoichiometry) (SpChiD-E153A [1]; 25 °C): 1.09 and 1.09 ± 0.00966; ΔH° (SpChiD-E153A [1]; 25 °C): 3.530 ± 0.0468 kcal/mol; ΔS° (SpChiD-E153A [1]; 25 °C): 38.7 cal.mol^−1.deg^−1; −TΔS (SpChiD-E153A [1]; 25 °C): 11.53 kcal/mol; −ΔG° (SpChiD-E153A [1]; 25 °C): 8 kcal/mol
4 | CC(=O)N[C@H]1[C@H](O[C@H]2[C@H](O)[C@@H](NC(C)=O)C(O)O[C@@H]2CO)O[C@H](CO)[C@@H](O[C@@H]2O[C@H](CO)[C@@H](O[C@@H]3O[C@H](CO)[C@@H](O)[C@H](O)[C@H]3NC(C)=O)[C@H](O)[C@H]2NC(C)=O)[C@@H]1O (some centres unmarked) [DP4, (GlcNAc)4, tetra-N-acetylchitotetraose] | 16 ± 1 | 2.7 ± 0.19 |  |  |  |  |  |  |  |  |  | 
5 | CC(=O)N[C@H]1[C@H](O[C@H]2[C@H](O)[C@@H](NC(C)=O)[C@H](O[C@H]3[C@H](O)[C@@H](NC(C)=O)C(O)O[C@@H]3CO)O[C@@H]2CO)O[C@H](CO)[C@@H](O[C@@H]2O[C@H](CO)[C@@H](O[C@@H]3O[C@H](CO)[C@@H](O[C@@H]4O[C@H](CO)[C@@H](O)[C@H](O)[C@H]4NC(C)=O)[C@H](O)[C@H]3NC(C)=O)[C@H](O)[C@H]2NC(C)=O)[C@@H]1O (some centres unmarked) [DP6, chitohexaose] |  |  | 58.15 ± 0.19 | 60.49 ± 0.055 |  |  |  |  |  | 26 fold | 480 ± 90 | increment of Tm1 over E153A alone (SpChiD mutant E153A): 12.8 °C; increment of Tm2 over E153A alone (SpChiD mutant E153A): 12.4 °C; n (binding stoichiometry) (SpChiD-E153A [1]; 25 °C): 1.58 and 1.58 ± 0.00962; ΔH° (SpChiD-E153A [1]; 25 °C): 2.281 ± 0.0249 kcal/mol; ΔS° (SpChiD-E153A [1]; 25 °C): 36.3 cal.mol^−1.deg^−1; −TΔS (SpChiD-E153A [1]; 25 °C): 10.81 kcal/mol; −ΔG° (SpChiD-E153A [1]; 25 °C): 8.53 kcal/mol
6 | CC(=O)N[C@H]1[C@H](O[C@H]2[C@H](O)[C@@H](NC(C)=O)C(O)O[C@@H]2CO)O[C@H](CO)[C@@H](O[C@@H]2O[C@H](CO)[C@@H](O)[C@H](O)[C@H]2NC(C)=O)[C@@H]1O (some centres unmarked) [DP3, (GlcNAc)3, N,N',N''-triacetylchitotriose] | 230 ± 20 | 327 ± 22 |  |  |  |  |  |  |  |  |  | 
7 | CC(=O)N[C@H]1[C@H](O[C@H]2[C@H](O)[C@@H](NC(C)=O)C(O)O[C@@H]2CO)O[C@H](CO)[C@@H](O[C@@H]2O[C@H](CO)[C@@H](O[C@@H]3O[C@H](CO)[C@@H](O)[C@H](O)[C@H]3NC(C)=O)[C@H](O)[C@H]2NC(C)=O)[C@@H]1O (some centres unmarked) [DP4] |  |  | 48.88 ± 0.52 | 54.10 ± 0.032 | 1.69 and 1.69 ± 0.071 | 1.148 ± 0.0675 | 27 | 7.72 | 6.6 |  | 11300 ± 1500 | 
8 | CC(=O)N[C@H]1[C@H](O[C@H]2[C@H](O)[C@@H](NC(C)=O)C(O)O[C@@H]2CO)O[C@H](CO)[C@@H](O)[C@@H]1O (some centres unmarked) [DP2] |  |  | 48.78 ± 0.03 | 53.16 ± 0.096 | 3.04 and 3.04 ± 0.307 | -0.1506 ± 0.0261 | 20.6 | 5.89 | 6.04 |  |  | binding affinity of DP2 to SpChiD relative to DP5 binding to SmChiB (SpChiD-E153A [2]; compared with DP5 on SmChiB (Kd = 0.67 μM)): ~3 times
9 | CC(=O)N[C@H]1[C@H](O[C@H]2[C@H](O)[C@@H](NC(C)=O)[C@H](O[C@H]3[C@H](O)[C@@H](NC(C)=O)C(O)O[C@@H]3CO)O[C@@H]2CO)O[C@H](CO)[C@@H](O[C@@H]2O[C@H](CO)[C@@H](O[C@@H]3O[C@H](CO)[C@@H](O)[C@H](O)[C@H]3NC(C)=O)[C@H](O)[C@H]2NC(C)=O)[C@@H]1O (some centres unmarked) [DP5, (GlcNAc)5, penta-N-acetylchitopentaose] | 1.8 ± 0.3 | 0.67 ± 0.2 |  |  |  |  |  |  |  |  |  | 
